Legend:
ADAM-17 (TACE) = ADAM-17 (TACE) (Homo sapiens (Human), UniProt P78536); experiment: ADAM-17 (TACE) inhibitor screening assay; assay type: biochemical; settings: read-out: Selectivity IC50 TACE
Method: The ADAM-17 (TACE) Inhibitor Screening Assay Kit was purchased from Sigma-Aldrich. The assay was performed according to the guidelines of the manufacturer using ilomastat as a positive control. Fluorescence signals were measured in a CLARIOstar plate reader (BMG Labtech).

[1] = test system: P. aeruginosa PAO1 (strain DSM22644); experiment: G. mellonella larvae survival after PAO1 infection; assay type: in vivo; settings: for Final survival percentage of larvae: 3 CFU/Larva, 24 h
Method: Bacteria were grown overnight, diluted to OD600 of 0.025 in 10 ml medium, and grown for approx. 2 hours at 37° C. inside a shaker incubator until the OD600 of 1.8-2 is reached. The culture was then serially diluted in sterile PBS (pH=7.2). Bacterial densities of 3000, 300, 30, and 3 CFU/Larva were selected for injection into groups of 15 larvae. A total volume of 5 μl was injected into each larva via the hindmost left proleg by using a syringe pump and Sterican® needles (0.30×12 mm, 30G×½). In addition, control group without injection for the quality of the larvae and a PBS control to monitor the effect of the injection were included in the experiment. All test groups and control groups were incubated at 37° C. in the dark and monitored every 2 hours from 17 hours post-infection.
In vivo evaluation of compounds 162 and 169. Bacteria were cultured and prepared according to the previous section. Final concentrations of 50 μM, 25 μM, and 12.5 μM in combination with 3 CFU/Larva were injected into groups of 15 larvae. In addition to no injection and PBS controls, one group was infected with 3 CFU/Larva and considered the negative control. All test groups and control groups were incubated at 37° C. in the dark and monitored every 2 hours from 17 hours post-infection.

Chain of ADAM-17 (TACE) (P78536 whole entry, looked up): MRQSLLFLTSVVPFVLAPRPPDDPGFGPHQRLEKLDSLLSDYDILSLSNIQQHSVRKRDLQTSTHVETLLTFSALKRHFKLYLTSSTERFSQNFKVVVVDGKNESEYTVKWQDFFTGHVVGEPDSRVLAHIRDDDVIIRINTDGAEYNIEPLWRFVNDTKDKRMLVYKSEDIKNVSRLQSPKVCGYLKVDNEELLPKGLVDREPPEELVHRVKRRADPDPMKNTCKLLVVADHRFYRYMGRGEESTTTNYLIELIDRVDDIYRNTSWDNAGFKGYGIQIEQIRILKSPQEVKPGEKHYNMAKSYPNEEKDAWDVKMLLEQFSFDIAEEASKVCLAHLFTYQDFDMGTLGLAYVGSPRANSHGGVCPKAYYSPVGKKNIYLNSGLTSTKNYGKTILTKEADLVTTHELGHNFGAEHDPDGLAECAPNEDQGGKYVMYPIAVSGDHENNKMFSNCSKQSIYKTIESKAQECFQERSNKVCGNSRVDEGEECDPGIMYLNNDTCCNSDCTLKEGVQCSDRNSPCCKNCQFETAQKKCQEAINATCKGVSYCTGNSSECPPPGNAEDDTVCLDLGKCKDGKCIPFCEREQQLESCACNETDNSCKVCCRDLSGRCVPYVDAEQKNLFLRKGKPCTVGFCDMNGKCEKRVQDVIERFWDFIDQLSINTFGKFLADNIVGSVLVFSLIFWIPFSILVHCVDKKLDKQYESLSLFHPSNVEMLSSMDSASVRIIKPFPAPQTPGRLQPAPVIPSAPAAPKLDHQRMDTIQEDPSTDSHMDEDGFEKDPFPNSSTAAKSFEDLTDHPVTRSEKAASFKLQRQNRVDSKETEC

SMILES: CC(C)CC(C(=O)NO)C(=O)Nc1ccc(Cn2cc(CNS(=O)(=O)CC(C)C)nn2)cc1 (centres unmarked) [Compound 169, 2-(Hydroxycarbamoyl)-N-[4-[[4-[(isobutylsulfonylamino)methyl]triazol-1-yl]methyl]phenyl]-4-methyl-pentanamide]
- IC50 (ADAM-17 (TACE)): > 100 µM
- Final survival percentage of larvae ([1]; 12.5 μM): 53%
- Final survival percentage of larvae ([1]; 25 μM): 73%
- Final survival percentage of larvae ([1]; 50 μM): 82%
- Improvement in survival of larvae compared to negative control ([1]; 50 μM, vs 3 CFU/Larva without treatment): 40%
